Results: PubChem BioAssay (NCI)
Where “and” joins values, the source holds several entries; their conditions need not be identical. Identical values can stand only once.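 Assay format: 96-well plates, 48-hour exposure. GI50 marks 50% less growth. TGI: total growth inhibition.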

Assays:
Assay in all cases: inhibition of tumour cell growth, NCI panel, 48 h
[1] = test system: 786-0 renal
[2] = test system: OVCAR-5 ovarian
[3] = test system: MOLT-4 leukemia
[4] = test system: UACC-257 melanoma
[5] = test system: COLO 205 colon
[6] = test system: LXFL 529 NSCLC
[7] = test system: A549 NSCLC
[8] = test system: CCRF-CEM leukemia
[9] = test system: M19-MEL melanoma
[10] = test system: MDA-MB-231 breast

Row | SMILES | TGI [1] [µM] | TGI [2] | TGI [3] [µM] | TGI [4] | TGI [5] [µM] | TGI [6] [µM] | TGI [7] [µM] | TGI [8] | TGI [9] [µM] | GI50 [1] | GI50 [2] | GI50 [3] | TGI [10] [µM] | GI50 [4] | GI50 [5] [µM] | GI50 [6] [µM] | GI50 [7] | GI50 [8] [µM] | GI50 [9]
1 | Cc1cc2c(=O)cc(-c3ccc(F)cc3)oc2c(C(=O)O)c1C | > 100 | > 100 µM | > 100 | > 100 µM | > 100 | > 100 | > 100 | > 100 µM | > 100 |  |  |  |  |  |  |  |  |  | 
2 | CC12CC(Sc3ccccc3N1)c1ccccc1O2 (stereo unspecified) | 31.6 | 33.3 µM | 44.6 | 27.8 µM | 29.9 | 28.4 | 41.9 | 36.5 µM | 30.9 |  |  |  |  |  |  |  |  |  | 
3 | O=[N+]([O-])c1ccc(COc2cccc3cccnc23)cc1 | 90.6 | > 100 µM | 31.4 | 54.8 µM | 33.5 | > 100 | > 100 | 23.7 µM | 38.2 |  |  |  |  |  |  |  |  |  | 
4 | Cc1cnc(SCCN2CCN(C)CC2)nc1-c1cc2ccccc2s1 | 24.3 |  | 7.5 | 23.5 µM | 29.2 | 27 | 16 | 14.2 µM |  |  |  |  |  |  |  |  |  |  | 
5 | CCOP(=O)(CC(=O)C1=C(O)C(CCCCNC(=O)OC(C)(C)C)N(Cc2ccccc2)C1=O)OCC (stereo unspecified) | > 100 | > 100 µM | > 100 | > 100 µM | > 100 | > 100 | > 100 | > 100 µM | > 100 |  |  |  |  |  |  |  |  |  | 
6 | CN1C(=O)C(=CN(C)c2ccccc2)C(=O)N(C)C1=O | > 100 | > 100 µM | > 100 | > 100 µM |  | > 100 | > 100 | > 100 µM | > 100 |  |  |  |  |  |  |  |  |  | 
7 | O=C1c2c(c3c4ccccc4[nH]c3c3[nH]c4ccccc4c23)C(=O)N1Cc1ccccc1 | 11.3 | 7.61 µM | 7.51 | 13.3 µM | 4.66 | 11.4 | 13.5 | 13.3 µM | 12.9 |  |  |  |  |  |  |  |  |  | 
8 | Cc1cc(NS(=O)(=O)c2ccc(NC(=O)COC(=O)c3cccc4c(=O)c5ccccc5[nH]c34)cc2)no1 | > 100 | > 100 µM | > 100 | > 100 µM | > 100 | > 100 | > 100 | > 100 µM | > 100 |  |  |  |  |  |  |  |  |  | 
9 | COC1=CC(=O)NCCN1 | > 100 | > 100 µM | > 100 | > 100 µM | > 100 | > 100 | > 100 | > 100 µM | > 100 |  |  |  |  |  |  |  |  |  | 
10 | Cc1cc(C)c(C(=O)/C=C/c2ccccc2)c(C)c1 | 81.6 |  | > 100 | > 100 µM | 71.3 | > 100 | > 100 | > 100 µM | > 100 |  |  |  |  |  |  |  |  |  | 
11 | CC(C)(C)N=CN(C=C(c1ccccc1)c1ccccc1)C1CCCCC1 | > 100 | > 100 µM |  | > 100 µM | > 100 |  | > 100 | > 100 µM | > 100 |  |  |  |  |  |  |  |  |  | 
12 | Cc1cc(NS(=O)(=O)c2ccc(Nc3c4ccccc4nc4c(C(=O)Nc5ccc(S(=O)(=O)N=C(N)N)cc5)ccc(Cl)c34)cc2)no1 | > 100 | > 100 µM | 67.3 | > 100 µM | > 100 | > 100 | > 100 |  | > 100 |  |  |  |  |  |  |  |  |  | 
13 | Brc1ccc(C2SCc3nc4ccccc4n32)cc1 (stereo unspecified) | 26 | 25.2 µM | > 100 |  | 27.3 | 22.2 | > 100 | > 100 µM | 27 |  |  |  |  |  |  |  |  |  | 
14 | Clc1ccc(C2=NOC3C4CCC(C4)C23)cc1 (stereo unspecified) | > 100 | > 100 µM | > 100 | > 100 µM | > 100 | > 100 | > 100 | > 100 µM | > 100 |  |  |  |  |  |  |  |  |  | 
15 | COc1cc2ccc(CC(N)=O)cc2cc1OC | > 100 | > 100 µM | > 100 | > 100 µM | > 100 | > 100 | > 100 | > 100 µM | > 100 |  |  |  |  |  |  |  |  |  | 
16 | CCCCCCCCCCCCCCNCC(OCC)OCC | 33 | 28.6 µM |  | 31.2 µM | 28 | 29 | 37.6 | 24.5 µM | 30.5 |  |  |  |  |  |  |  |  |  | 
17 | Clc1cccc2c1OCC1C(c3ccccc3)=NN(c3ccccc3)C21 (stereo unspecified) | > 100 | > 100 µM | > 100 | > 100 µM | > 100 | > 100 | > 100 | > 100 µM | > 100 |  |  |  |  |  |  |  |  |  | 
18 | Cc1ccc2c(CC(=O)O)cc(=O)oc2c1 | > 100 | > 100 µM | > 100 |  | > 100 | > 100 | > 100 | > 100 µM | > 100 |  |  |  |  |  |  |  |  |  | 
19 | O=C1N[C@H]2[C@H](O)[C@H](O)[C@@H](O)[C@H](O)[C@@H]2c2cc3c(c(O)c21)OCO3 |  | 9.37 µM and 1.22 µM |  | 2.4 µM and 0.334 µM |  | 4.13 |  | 0.767 µM and 0.485 µM |  | 0.324 µM and 0.0396 µM | 0.657 µM and 1.16 µM | 0.196 µM and 0.575 µM | 0.091 | 0.314 µM and 0.339 µM | 12.8 | 0.248 | 0.407 µM and 3.51 µM | 0.137 | 0.276 µM and 0.463 µM
